The values that follow come from PubChem BioAssay AID747 (Structural Genomics Consortium, 2007).

Sequence of Sulfotransferase 1E1 (Homo sapiens) (P49888 whole entry, looked up): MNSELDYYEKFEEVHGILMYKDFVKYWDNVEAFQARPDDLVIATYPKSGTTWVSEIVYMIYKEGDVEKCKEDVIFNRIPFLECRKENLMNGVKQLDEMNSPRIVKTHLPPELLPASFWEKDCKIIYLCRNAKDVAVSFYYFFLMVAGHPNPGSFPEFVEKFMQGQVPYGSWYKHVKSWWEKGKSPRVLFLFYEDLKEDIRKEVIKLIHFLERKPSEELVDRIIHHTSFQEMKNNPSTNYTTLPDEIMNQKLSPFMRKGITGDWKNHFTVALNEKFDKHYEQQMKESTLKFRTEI

The assay addresses Sulfotransferase 1E1 (Homo sapiens) (UniProt P49888). In words: ligand binding to SULT1E1 via aggregation temperature – biophysical, StarGazer light scattering, human (AID 747). To be noted: purified SULT1E1, StarGazer light scattering thermal shift; at 1 mM; stronger effect = higher value.
For the molecule `C[C@H]1CCC[C@H](O)CCC/C=C/c2cc(O)cc(O)c2C(=O)O1`, the Tagg shift turned out to be 1.3 °C. Turning to `O=c1c(O)c(-c2ccc(O)c(O)c2)oc2cc(O)cc(O)c12`, the Tagg shift worked out at 1.95 °C. The result for `COc1cc(C=O)ccc1O` reads 0 °C. `CCCc1ccccc1O`: the Tagg shift is 0 °C. The same measure for `C[C@]12CC[C@@H]3c4cc(O)c(O)cc4CC[C@H]3[C@@H]1CC[C@@H]2O`: 1.55 °C; for `O=[N+]([O-])c1cc(Cl)c(O)c(Cl)c1`: 1.4 °C. With `Cc1ncc(COP(=O)(O)O)c(C=O)c1O`, the Tagg shift is 3.95 °C. The result for `CCc1ccccc1O` reads 0 °C; that for `O=C(O)c1ccccc1O`, 0 °C. The result for `CCC(C)c1ccccc1O` (stereo unspecified) reads 0 °C.

As for `C[C@]12CC[C@H](OS(=O)(=O)O)CC1=CC[C@@H]1[C@@H]2CC[C@]2(C)C(=O)CC[C@@H]12`, the Tagg shift was 1.1 °C. The same measure for `Nc1ccc(O)cc1`: 0 °C; for `Oc1cccc2ccccc12`: 0 °C; for `COC(=O)CCC(C)C1CCC2C3CCC4CC(O)CCC4(C)C3CCC12C` (stereo unspecified): 1.2 °C. With `NC(Cc1cc(I)c(Oc2ccc(O)c(I)c2)c(I)c1)C(=O)O` (stereo unspecified), the Tagg shift is 2.6 °C.

As for `C[C@]12CC[C@@H]3c4ccc(O)cc4CC[C@H]3[C@@H]1CCC2=O`, the Tagg shift was determined as 1.1 °C.

`CN1CCc2cccc3c2C1Cc1ccc(O)c(O)c1-3` (stereo unspecified): the Tagg shift was found to be 0 °C. In the case of `Oc1ccc2ccccc2c1`, the Tagg shift was determined as 0 °C. With `CNCC(O)c1ccc(O)c(O)c1` (stereo unspecified), the Tagg shift turned out to be 0 °C. `NCCc1ccc(O)c(O)c1`: the Tagg shift turned out to be 0 °C. The result for `Cc1ccc(O)cc1` reads 0 °C; that for `CC(C)NCC(O)c1ccc(O)c(O)c1` (stereo unspecified), 0 °C. `Oc1ccc(/C=C/c2cc(O)cc(O)c2)cc1`: the Tagg shift worked out at 2.25 °C. The same measure for `Oc1c(Cl)c(Cl)c(Cl)c(Cl)c1Cl`: 0 °C; for `NC[C@H](O)c1ccc(O)c(O)c1`: 0 °C. In the case of `Cc1cccc(Nc2ccccc2C(=O)O)c1C`, the Tagg shift came to 2.35 °C.
